From ChEMBL document CHEMBL4823254, “Tetrahydroquinoline-Capped Histone Deacetylase 6 Inhibitor SW-101 Ameliorates Pathological Phenotypes in a Charcot-Marie-Tooth Type 2A Mouse Model” (J Med Chem, 2021)

Columns and labels:
[1] = target: Histone deacetylase 1 (Homo sapiens, UniProt Q13547); assay: Inhibition of full length recombinant C-terminal FLAG-His-tagged human HDAC1 expressed in baculovirus infected Sf21 insect cells using RHK-K(Ac)-AMC peptide as substrate measured after 60 mins by fluorimetry analysis
Histone deacetylase 1, sequence (Q13547 whole entry): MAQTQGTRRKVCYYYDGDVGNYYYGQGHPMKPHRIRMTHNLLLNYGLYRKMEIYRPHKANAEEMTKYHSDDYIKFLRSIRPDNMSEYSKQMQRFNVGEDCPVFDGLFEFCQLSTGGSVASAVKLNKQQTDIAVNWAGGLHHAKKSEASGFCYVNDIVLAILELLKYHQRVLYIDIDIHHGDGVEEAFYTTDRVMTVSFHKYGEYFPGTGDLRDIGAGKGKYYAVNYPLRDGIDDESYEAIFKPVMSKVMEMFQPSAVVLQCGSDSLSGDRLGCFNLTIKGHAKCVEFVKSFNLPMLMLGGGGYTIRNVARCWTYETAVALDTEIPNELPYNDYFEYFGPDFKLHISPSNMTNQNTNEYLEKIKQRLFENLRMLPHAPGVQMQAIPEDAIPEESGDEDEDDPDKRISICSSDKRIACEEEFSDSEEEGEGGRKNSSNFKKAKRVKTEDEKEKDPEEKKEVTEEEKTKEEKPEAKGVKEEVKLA

[2] = species on record: Homo sapiens; assay: Selectivity index, ratio of IC50 for full length recombinant C-terminal FLAG-His-tagged human HDAC1 expressed in baculovirus infected Sf21 insect cells using RHK-K(Ac)-AMC peptide as substrate measured after 60 mins by fluorimetry analysis to IC50 for full length recombinant N-terminal GST-tagged …
Description: Selectivity index, ratio of IC50 for full length recombinant C-terminal FLAG-His-tagged human HDAC1 expressed in baculovirus infected Sf21 insect cells using RHK-K(Ac)-AMC peptide as substrate measured after 60 mins by fluorimetry analysis to IC50 for full length recombinant N-terminal GST-tagged human HDAC6 expressed in baculovirus infected Sf9 insect cells using RHK-K(Ac)-AMC peptide as substrate measured after 90 mins by fluorimetry analysis

[3] = Stability in CD1 mouse pooled liver microsomes assessed as parent compound remaining measured at 60 mins in presence of NADPH by LC-MS/MS analysis; type: ADME, Microsome; settings: CD1, mouse, pooled liver microsomes, read-out: Stabilty
[4] = Half life in CD1 mouse pooled liver microsomes assessed as parent compound remaining measured up to 60 mins in presence of NADPH by LC-MS/MS analysis; type: ADME, Microsome; settings: CD1, mouse, pooled liver microsomes
[5] = Stability in human pooled liver microsomes assessed as parent compound remaining measured at 60 mins in presence of NADPH by LC-MS/MS analysis; type: ADME, Microsome
[6] = Half life in human pooled liver microsomes assessed as parent compound remaining measured up to 60 mins in presence of NADPH by LC-MS/MS analysis; type: ADME, Microsome
[7] = target: T1, Protein deacetylase HDAC6 (Homo sapiens, UniProt Q9UBN7); assay: biochemical
T1 sequence (Q9UBN7 whole entry): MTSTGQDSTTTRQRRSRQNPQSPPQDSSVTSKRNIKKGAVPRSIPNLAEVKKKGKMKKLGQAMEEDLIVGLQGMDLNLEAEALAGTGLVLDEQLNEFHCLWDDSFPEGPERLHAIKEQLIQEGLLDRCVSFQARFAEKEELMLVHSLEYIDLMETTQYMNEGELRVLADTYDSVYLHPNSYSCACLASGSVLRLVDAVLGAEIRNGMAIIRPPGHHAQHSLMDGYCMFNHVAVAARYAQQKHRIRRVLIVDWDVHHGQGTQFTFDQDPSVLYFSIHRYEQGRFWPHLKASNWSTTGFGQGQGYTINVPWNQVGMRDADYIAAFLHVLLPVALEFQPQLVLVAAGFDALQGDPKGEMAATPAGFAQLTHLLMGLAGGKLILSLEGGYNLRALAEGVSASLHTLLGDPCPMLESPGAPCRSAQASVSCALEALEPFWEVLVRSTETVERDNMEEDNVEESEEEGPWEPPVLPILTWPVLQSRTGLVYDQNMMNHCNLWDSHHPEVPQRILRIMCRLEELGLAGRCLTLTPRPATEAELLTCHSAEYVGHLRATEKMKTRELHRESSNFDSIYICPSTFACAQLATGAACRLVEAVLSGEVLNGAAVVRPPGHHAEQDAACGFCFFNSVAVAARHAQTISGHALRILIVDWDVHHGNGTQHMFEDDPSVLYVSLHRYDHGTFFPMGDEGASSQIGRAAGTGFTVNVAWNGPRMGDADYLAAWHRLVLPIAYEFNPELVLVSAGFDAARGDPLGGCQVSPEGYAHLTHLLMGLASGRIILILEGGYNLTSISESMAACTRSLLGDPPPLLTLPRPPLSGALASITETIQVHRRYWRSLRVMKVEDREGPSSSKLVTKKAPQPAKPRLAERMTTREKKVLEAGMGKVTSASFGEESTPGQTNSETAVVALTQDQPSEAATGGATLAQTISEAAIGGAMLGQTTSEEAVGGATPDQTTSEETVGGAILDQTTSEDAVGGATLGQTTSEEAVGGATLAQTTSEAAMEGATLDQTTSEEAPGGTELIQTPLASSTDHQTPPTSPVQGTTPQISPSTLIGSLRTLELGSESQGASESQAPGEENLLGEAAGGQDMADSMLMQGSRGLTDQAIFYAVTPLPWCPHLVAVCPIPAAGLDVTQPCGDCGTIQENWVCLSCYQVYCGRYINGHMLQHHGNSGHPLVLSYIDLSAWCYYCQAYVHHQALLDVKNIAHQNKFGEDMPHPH
Description: Inhibition of full length recombinant N-terminal GST-tagged human HDAC6 expressed in baculovirus infected Sf9 insect cells using RHK-K(Ac)-AMC peptide as substrate measured after 90 mins by fluorimetry analysis

[8] = target: T2, Protein deacetylase HDAC6 (Mus musculus) (UniProt Q9Z2V5); assay: Inhibition of HDAC6 in mouse Neuro2a cells assessed as fold increase in ratio of acetylated alpha-tubulin to alpha tubulin at 1 uM incubated for overnight by Western blot analysis; type: cell-based; settings: time 12.0 hrs
T2 sequence (whole entry): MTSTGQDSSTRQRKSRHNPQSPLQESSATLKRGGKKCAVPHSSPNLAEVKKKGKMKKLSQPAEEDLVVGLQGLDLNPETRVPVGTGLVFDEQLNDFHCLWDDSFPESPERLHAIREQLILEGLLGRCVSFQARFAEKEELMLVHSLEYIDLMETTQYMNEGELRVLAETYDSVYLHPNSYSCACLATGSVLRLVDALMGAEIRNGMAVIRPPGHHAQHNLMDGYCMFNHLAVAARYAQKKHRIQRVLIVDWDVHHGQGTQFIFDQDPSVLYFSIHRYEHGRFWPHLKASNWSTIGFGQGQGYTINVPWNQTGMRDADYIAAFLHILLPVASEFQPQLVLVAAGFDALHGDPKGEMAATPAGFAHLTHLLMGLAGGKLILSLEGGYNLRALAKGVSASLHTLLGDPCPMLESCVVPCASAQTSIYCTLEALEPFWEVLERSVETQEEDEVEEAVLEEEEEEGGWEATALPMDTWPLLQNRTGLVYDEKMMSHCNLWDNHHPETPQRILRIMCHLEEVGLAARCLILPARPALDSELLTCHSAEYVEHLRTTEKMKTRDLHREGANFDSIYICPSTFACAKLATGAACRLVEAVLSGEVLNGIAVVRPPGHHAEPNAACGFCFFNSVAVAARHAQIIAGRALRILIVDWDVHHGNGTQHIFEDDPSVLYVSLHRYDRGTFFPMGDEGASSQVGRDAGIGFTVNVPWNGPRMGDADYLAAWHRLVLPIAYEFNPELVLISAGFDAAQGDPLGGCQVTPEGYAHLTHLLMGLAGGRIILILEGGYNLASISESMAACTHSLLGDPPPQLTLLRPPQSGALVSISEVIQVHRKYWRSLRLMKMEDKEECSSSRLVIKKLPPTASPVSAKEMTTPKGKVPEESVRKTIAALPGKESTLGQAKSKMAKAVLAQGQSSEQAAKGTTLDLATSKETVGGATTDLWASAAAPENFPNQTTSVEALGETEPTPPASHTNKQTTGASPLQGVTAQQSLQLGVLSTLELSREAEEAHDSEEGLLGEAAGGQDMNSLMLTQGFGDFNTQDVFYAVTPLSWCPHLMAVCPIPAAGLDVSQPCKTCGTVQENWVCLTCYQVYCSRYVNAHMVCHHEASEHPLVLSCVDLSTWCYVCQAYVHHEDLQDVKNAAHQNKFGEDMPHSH

[9] = Half life in liver microsomes; type: ADME, Microsome
[10] = Half life in hepatocytes; type: ADME, cell-based, Hepatocyte
[11] = target: T2, Protein deacetylase HDAC6 (Mus musculus); assay: Inhibition of HDAC6 in mouse Neuro2a cells assessed as fold increase in ratio of acetylated alpha-tubulin to alpha tubulin at 0.01 uM incubated for overnight by Western blot analysis; type: cell-based; settings: time 12.0 hrs
[12] = target: Histone deacetylase 2 (Homo sapiens, UniProt Q92769); assay: Inhibition of recombinant human HDAC2 using Ac-GAK(Ac)-AMC as substrate preincubated for 10 mins followed by substrate addition and measured after 30 mins by fluorescence-based assay
Histone deacetylase 2, sequence (Q92769 whole entry): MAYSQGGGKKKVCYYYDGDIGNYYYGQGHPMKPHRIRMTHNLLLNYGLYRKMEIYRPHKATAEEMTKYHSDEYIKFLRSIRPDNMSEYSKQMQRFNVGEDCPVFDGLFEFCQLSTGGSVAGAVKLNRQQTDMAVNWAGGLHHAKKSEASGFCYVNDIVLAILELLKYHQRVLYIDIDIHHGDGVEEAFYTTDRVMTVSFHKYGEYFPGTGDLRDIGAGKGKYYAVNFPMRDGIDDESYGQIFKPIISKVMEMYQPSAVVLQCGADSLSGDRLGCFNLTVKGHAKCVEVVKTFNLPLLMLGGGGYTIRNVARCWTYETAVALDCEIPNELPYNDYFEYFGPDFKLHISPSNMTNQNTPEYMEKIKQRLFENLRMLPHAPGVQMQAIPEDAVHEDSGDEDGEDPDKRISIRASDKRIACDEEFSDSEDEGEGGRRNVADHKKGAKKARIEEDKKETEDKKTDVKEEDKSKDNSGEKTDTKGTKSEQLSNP

[13] = target: Histone deacetylase 3 (Homo sapiens, UniProt O15379); assay: Inhibition of recombinant human HDAC3 using Ac-GAK(Ac)-AMC as substrate preincubated for 10 mins followed by substrate addition and measured after 30 mins by fluorescence-based assay
Histone deacetylase 3, sequence (O15379 whole entry): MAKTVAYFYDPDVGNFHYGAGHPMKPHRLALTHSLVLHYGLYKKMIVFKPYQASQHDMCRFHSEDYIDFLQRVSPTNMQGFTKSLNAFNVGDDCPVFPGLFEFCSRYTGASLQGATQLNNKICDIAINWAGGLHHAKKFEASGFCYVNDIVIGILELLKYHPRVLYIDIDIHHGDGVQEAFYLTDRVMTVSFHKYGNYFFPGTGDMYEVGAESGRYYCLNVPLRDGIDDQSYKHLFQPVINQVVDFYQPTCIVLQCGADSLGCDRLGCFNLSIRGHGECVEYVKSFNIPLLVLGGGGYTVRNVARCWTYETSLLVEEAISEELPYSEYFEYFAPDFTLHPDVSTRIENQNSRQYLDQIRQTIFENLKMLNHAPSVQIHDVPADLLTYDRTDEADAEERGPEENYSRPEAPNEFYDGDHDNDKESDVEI

[14] = target: Histone deacetylase 4 (Homo sapiens, UniProt P56524); assay: Inhibition of recombinant human HDAC4 using Boc-Lys(TFA)-AMC as substrate preincubated for 10 mins followed by substrate addition and measured after 30 mins by fluorescence-based assay
Histone deacetylase 4, sequence (P56524 whole entry): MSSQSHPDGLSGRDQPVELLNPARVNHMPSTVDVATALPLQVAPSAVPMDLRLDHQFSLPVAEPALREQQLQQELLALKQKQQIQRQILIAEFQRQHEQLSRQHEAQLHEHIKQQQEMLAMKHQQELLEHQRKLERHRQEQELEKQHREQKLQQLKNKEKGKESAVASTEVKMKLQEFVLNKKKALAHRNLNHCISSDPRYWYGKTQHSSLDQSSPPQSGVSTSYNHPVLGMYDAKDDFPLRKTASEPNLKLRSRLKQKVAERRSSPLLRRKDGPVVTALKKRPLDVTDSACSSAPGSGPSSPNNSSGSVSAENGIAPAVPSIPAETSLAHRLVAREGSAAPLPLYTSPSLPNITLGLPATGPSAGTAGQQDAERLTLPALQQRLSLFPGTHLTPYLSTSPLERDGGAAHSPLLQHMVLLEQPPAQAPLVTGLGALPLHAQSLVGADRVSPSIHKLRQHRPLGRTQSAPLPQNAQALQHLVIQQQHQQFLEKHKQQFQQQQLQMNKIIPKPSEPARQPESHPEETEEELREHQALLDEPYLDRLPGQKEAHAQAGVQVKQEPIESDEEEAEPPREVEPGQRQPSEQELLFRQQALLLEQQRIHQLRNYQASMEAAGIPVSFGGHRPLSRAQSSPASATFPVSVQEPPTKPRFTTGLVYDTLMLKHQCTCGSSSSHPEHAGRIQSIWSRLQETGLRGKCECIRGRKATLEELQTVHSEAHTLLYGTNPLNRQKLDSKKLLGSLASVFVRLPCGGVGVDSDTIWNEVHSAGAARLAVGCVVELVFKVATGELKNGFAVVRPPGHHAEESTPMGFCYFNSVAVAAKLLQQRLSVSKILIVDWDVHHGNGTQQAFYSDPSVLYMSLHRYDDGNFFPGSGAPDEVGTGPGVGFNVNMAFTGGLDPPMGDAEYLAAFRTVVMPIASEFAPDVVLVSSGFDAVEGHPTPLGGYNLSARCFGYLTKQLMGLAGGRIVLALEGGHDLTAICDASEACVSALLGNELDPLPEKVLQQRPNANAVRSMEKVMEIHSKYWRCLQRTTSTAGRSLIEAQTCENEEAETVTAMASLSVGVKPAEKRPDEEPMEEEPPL

[15] = target: Histone deacetylase 5 (Homo sapiens, UniProt Q9UQL6); assay: Inhibition of recombinant human HDAC5 using Boc-Lys(TFA)-AMC as substrate preincubated for 10 mins followed by substrate addition and measured after 30 mins by fluorescence-based assay
Histone deacetylase 5, sequence (Q9UQL6 whole entry): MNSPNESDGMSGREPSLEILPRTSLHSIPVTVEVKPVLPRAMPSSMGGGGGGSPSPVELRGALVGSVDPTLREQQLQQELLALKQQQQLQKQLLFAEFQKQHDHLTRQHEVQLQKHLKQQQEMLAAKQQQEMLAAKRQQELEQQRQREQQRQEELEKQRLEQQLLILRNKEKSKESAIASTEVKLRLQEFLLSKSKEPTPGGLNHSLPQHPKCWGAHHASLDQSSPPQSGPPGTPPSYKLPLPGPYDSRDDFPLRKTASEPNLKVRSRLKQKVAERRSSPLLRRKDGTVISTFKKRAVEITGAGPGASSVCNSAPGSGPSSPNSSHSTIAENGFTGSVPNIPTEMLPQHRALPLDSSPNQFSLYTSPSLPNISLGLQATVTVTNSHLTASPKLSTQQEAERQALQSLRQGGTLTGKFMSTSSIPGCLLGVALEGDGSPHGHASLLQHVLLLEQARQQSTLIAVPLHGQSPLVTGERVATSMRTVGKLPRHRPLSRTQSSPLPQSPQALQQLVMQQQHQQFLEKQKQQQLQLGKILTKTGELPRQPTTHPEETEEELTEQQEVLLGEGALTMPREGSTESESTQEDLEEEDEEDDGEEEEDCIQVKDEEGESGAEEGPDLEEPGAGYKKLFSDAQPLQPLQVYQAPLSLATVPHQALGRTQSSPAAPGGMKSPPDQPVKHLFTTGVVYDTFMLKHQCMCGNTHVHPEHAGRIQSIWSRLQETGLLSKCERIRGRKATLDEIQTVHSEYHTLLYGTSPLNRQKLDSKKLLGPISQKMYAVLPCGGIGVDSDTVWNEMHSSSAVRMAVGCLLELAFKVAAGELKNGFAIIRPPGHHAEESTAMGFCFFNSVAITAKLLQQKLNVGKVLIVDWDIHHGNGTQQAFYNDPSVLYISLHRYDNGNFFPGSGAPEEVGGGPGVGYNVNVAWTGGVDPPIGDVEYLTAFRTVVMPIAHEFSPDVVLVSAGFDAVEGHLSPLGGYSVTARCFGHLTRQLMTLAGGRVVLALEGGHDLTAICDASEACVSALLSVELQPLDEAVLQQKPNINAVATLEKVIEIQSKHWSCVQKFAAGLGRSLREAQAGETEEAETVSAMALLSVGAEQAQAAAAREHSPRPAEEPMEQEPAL

[16] = target: Histone deacetylase 9 (Homo sapiens, UniProt Q9UKV0); assay: Inhibition of recombinant human HDAC9 using Boc-Lys(TFA)-AMC as substrate preincubated for 10 mins followed by substrate addition and measured after 30 mins by fluorescence-based assay
Histone deacetylase 9, sequence (Q9UKV0 whole entry): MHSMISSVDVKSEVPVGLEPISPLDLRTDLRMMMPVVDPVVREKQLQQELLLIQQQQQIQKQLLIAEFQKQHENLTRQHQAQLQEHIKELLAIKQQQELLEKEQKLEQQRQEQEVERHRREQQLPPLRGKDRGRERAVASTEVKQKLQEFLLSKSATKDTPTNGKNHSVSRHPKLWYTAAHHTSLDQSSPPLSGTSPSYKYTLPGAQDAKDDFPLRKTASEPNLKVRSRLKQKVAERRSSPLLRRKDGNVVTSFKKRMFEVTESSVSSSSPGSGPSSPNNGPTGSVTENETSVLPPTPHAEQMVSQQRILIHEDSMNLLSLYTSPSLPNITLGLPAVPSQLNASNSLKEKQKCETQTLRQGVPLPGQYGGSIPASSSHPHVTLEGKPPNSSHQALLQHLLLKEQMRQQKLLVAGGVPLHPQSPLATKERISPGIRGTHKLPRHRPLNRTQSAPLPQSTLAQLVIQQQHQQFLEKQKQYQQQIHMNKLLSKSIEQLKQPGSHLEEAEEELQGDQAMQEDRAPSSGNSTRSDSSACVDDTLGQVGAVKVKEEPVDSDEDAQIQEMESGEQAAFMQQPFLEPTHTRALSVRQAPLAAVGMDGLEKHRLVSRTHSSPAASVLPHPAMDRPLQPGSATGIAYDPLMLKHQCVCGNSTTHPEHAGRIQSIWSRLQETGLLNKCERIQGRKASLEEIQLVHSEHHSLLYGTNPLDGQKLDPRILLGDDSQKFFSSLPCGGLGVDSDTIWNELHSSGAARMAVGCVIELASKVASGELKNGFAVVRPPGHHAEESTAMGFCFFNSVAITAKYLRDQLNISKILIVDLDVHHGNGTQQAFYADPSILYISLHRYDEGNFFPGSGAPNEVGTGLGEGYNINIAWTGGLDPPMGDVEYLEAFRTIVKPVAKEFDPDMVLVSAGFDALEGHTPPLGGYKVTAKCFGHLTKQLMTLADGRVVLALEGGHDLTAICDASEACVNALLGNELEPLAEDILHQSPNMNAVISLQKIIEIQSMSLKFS

[17] = target: T2, Protein deacetylase HDAC6 (Mus musculus); assay: In vivo inhibition of HDAC6 in wild type mouse assessed as increase in alpha-tubulin acetylation in sciatic nerve tissue at 20 mg/kg, ip administered for 12 hrs by immunoblot analysis relative to control; type: functional, organism-based; parameters: scale not given: the % may be the effect or the level left
[18] = target: T3, Histone deacetylase 8 (Homo sapiens, UniProt Q9BY41)
T3 sequence (Q9BY41 whole entry): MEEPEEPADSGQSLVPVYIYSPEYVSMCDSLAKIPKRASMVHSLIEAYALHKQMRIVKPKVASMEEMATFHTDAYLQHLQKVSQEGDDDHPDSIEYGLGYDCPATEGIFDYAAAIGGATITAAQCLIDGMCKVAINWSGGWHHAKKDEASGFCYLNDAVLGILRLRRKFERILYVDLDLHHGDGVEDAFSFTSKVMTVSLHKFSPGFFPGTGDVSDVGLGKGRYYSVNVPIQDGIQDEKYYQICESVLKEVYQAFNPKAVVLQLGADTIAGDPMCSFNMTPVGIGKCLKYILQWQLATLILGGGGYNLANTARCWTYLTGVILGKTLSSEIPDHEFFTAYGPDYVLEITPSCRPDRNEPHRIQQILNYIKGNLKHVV
Description: Inhibition of recombinant human HDAC8 using Boc-Lys(TFA)-AMC as substrate preincubated for 10 mins followed by substrate addition and measured after 30 mins by fluorescence-based assay

[19] = target: T4, Histone deacetylase 7 (Homo sapiens, UniProt Q8WUI4)
T4 sequence (Q8WUI4 whole entry): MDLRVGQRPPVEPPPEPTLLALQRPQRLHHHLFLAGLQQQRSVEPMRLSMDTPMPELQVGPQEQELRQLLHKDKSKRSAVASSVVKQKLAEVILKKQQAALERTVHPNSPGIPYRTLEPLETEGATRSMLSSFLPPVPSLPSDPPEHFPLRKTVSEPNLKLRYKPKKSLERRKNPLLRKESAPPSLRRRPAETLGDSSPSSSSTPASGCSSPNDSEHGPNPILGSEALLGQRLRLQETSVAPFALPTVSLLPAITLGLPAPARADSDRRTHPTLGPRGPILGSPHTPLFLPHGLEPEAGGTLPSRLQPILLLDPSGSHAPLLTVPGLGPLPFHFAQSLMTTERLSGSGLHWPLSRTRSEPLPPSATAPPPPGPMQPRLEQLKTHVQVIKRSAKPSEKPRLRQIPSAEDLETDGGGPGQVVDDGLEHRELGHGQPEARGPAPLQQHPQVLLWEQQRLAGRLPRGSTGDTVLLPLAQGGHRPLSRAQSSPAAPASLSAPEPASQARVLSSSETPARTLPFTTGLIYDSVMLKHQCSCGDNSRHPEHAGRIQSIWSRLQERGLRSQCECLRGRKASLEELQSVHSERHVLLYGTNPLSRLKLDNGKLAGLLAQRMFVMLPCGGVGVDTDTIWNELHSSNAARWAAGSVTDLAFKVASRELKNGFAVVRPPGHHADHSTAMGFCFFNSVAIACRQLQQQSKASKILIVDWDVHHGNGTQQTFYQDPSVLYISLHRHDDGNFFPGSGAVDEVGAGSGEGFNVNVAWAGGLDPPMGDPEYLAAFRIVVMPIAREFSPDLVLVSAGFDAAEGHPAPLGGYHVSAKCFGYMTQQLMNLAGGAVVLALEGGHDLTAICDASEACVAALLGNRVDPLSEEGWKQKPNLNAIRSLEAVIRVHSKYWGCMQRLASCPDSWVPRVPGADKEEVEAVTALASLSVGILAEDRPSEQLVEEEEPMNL
Description: Inhibition of recombinant human HDAC7 using Boc-Lys(TFA)-AMC as substrate preincubated for 10 mins followed by substrate addition and measured after 30 mins by fluorescence-based assay

For O=C(NO)c1ccc(CN2CCCc3ccccc32)cc1, the IC50 [1] was 15 nM, the Ratio IC50 [2] was 733 and the remaining at 1 h [3] was 34.1%. It also gave a half-life [4] of 40.4 min, a remaining at 1 h ([5]; pooled liver microsomes, read-out: Stabilty) of 73% and a half-life ([6]; pooled liver microsomes) of 182 min. The IC50 [7] was 11000 nM.
For O=C(NO)c1ccc(CN2CCCc3cc(Cl)ccc32)cc1, the fold change (FC) [8] was 1, the half-life [9] was < 30 min and the half-life [10] was < 30 min. It also gave a fold change (FC) [11] of 1, a remaining at 1 h [3] of 27.3% and a half-life [4] of 31.9 min. The Stabilty ([5]; microsomes, 1 h) was 42.6%, the t1/2 ([6]; microsomes, 1 h) was 483 min and the IC50 [12] was 282 nM. For the same compound, the IC50 [13] was 1270 nM, the IC50 [14] was 2140 nM and the IC50 [15] was 1480 nM. The IC50 [16] was 3400 nM, the Activity [17] was 125% and the IC50 [18] was 3060 nM. The IC50 [19] was 511 nM.
